Experimental data published in patent US20260265538A1, “Aqueous Industrial Product Stabilized Against Microbial Contamination” (Thor GmbH, priority 2023, published 2026).

System: Bacteria mixture 2 (alkaliphilic bacteria of the Nesterenkonia & Alkalibacterium genus)
Test: Repetitive stress test of paints with bacteria mixture 2, semiquantitative evaluation (examples 4 and 5)
Format: cell-based
Parameters: key to Bacterial growth after inoculation: 0: No growth; Minimal growth, 1 to 10 colonies visible over the entire streak; 2: Light growth, maximum 100 colonies; Moderate growth, maximum 300 to 400 colonies; Uniform growth, >400 colonies, single colonies still clearly recognizable; 5: Heavy growth, too many colonies to count, but no growth over the entire streak; 6: Full growth, barely any single colonies still apparent, growth over the entire streak
Details: Table 4
From the text: Paints 1 to 3 were mixed and homogenized with various concentrations of the guanidinium salts to be tested.
The batches obtained of the paint thus prepared were inoculated repeatedly with a mixture of different wild-type bacterial strains that are of practical relevance with regard to contamination. These bacteria had previously been isolated from commercial emulsion paints containing conventional preservatives (bacteria mixture 1, Pseudomonas genus), which are microbially contaminated in practice, and commercial so-called preservative-free alkaline emulsion paints (bacteria mixture 2, alkaliphilic bacteria of the Nesterenkonia & Alkalibacterium genus), which are microbially contaminated in practice.
• Nesterenkonia sp. DSM 108520 • Nesterenkonia sp. DSM 108521 • Alkalibacterium pelagium DSM 108522 • Nesterenkonia massiliensis DSM 110679 • Nesterenkonia sp. DSM 108519
The inoculum was added to the respective sample in each inoculation at 2% (v/w) as a fresh cell suspension in a physiological saline solution (0.9% NaCl). The cell count of the added inoculum in example 1 was 10^5/ml, in examples 2 to 5 10^9/ml, and in example 6 10^6/ml, each in equal portions consisting of the individual bacterial strains. The cell suspension was produced by growing the individual bacteria at 30° C. for 24 h in liquid culture on a shaker. The medium used to grow the bacteria from bacteria mixture 1 was Müller-Hinton liquid medium. Bacteria from bacteria mixture 2 were grown in Müller-Hinton liquid medium that had been adjusted to pH 9.5-9.7 with an alkaline buffer solution beforehand. After growing, the individual liquid cultures were centrifuged, and the cells were resuspended in physiological saline solution. In order to adjust the mixture to the desired cell count, the individual bacteria suspensions, if necessary, were diluted accordingly before being combined with saline solution. The cell count of the inoculum was determined in each case by chamber counting.
In examples 2 to 6, what is called a repetitive stress test with bacteria was conducted by inoculating the samples at particular time intervals repeatedly with a bacteria suspension having a cell count of 10^9/ml (2% v/w) and monitoring the evolution of the bacteria by a semiquantitative evaluation method. After each inoculation, the samples were incubated at 30° C. for 6 days (bacteria mixture 1 and 3) or 7 and 14 days (bacteria mixture 2), and after these periods bacterial infestation was evaluated semiquantitatively in each case. For this purpose, an aliquot was taken from each sample after homogenization using a sterile plastic inoculation loop (10 μl) and streaked evenly on agar plates (bacteria mixture 1 and 3 on tryptic soy agar, bacteria mixture 2 on DSMZ 31 alkaline nutrient agar). The streaked agar plates were then incubated at 30° C. for 48 h (bacteria mixture 1 and 3) or 5 to 7 days (bacteria mixture 2). After incubation, the bacterial colonies grown on the agar plates were visually evaluated and quantified according to the following scheme:
A total of 3 inoculation cycles was performed in each repetitive stress test.
Inoculation 2% (w/v) with Bacteria Mixture 2, 10^9 CFU/ml

N=C(N)N.N=C(N)N.O=C(O)O [guanidine carbonate]
Bacterial growth after inoculation (Paint 1, +0.1% guanidine carbonate (656 ppm guanidine), pH 9.1, 1. inoculation, 7 d): 0/0
Bacterial growth after inoculation (Paint 1, +0.1% guanidine carbonate (656 ppm guanidine), pH 9.1, 1. inoculation, 14 d): 0/0
Bacterial growth after inoculation (Paint 1, +0.1% guanidine carbonate (656 ppm guanidine), pH 9.1, 2. inoculation, 7 d): 0/0
Bacterial growth after inoculation (Paint 1, +0.1% guanidine carbonate (656 ppm guanidine), pH 9.1, 2. inoculation, 14 d): 0/0
Bacterial growth after inoculation (Paint 1, +0.1% guanidine carbonate (656 ppm guanidine), pH 9.1, 3. inoculation, 7 d): 6/6
Bacterial growth after inoculation (Paint 1, +0.1% guanidine carbonate (656 ppm guanidine), pH 9.1, 3. inoculation, 14 d): 6/6
Bacterial growth after inoculation (Paint 1, +0.15% guanidine carbonate (984 ppm guanidine), pH 9.4, 1. inoculation, 7 d): 0/0
Bacterial growth after inoculation (Paint 1, +0.15% guanidine carbonate (984 ppm guanidine), pH 9.4, 1. inoculation, 14 d): 0/0
Bacterial growth after inoculation (Paint 1, +0.15% guanidine carbonate (984 ppm guanidine), pH 9.4, 2. inoculation, 7 d): 0/0
Bacterial growth after inoculation (Paint 1, +0.15% guanidine carbonate (984 ppm guanidine), pH 9.4, 2. inoculation, 14 d): 0/0
Bacterial growth after inoculation (Paint 1, +0.15% guanidine carbonate (984 ppm guanidine), pH 9.4, 3. inoculation, 7 d): 0/0
Bacterial growth after inoculation (Paint 1, +0.15% guanidine carbonate (984 ppm guanidine), pH 9.4, 3. inoculation, 14 d): 0/0
Bacterial growth after inoculation (Paint 1, +0.2% guanidine carbonate (1312 ppm guanidine), pH 9.6, 1. inoculation, 7 d): 0/0
Bacterial growth after inoculation (Paint 1, +0.2% guanidine carbonate (1312 ppm guanidine), pH 9.6, 1. inoculation, 14 d): 0/0
Bacterial growth after inoculation (Paint 1, +0.2% guanidine carbonate (1312 ppm guanidine), pH 9.6, 2. inoculation, 7 d): 0/0
Bacterial growth after inoculation (Paint 1, +0.2% guanidine carbonate (1312 ppm guanidine), pH 9.6, 2. inoculation, 14 d): 0/0
Bacterial growth after inoculation (Paint 1, +0.2% guanidine carbonate (1312 ppm guanidine), pH 9.6, 3. inoculation, 7 d): 0/0
Bacterial growth after inoculation (Paint 1, +0.2% guanidine carbonate (1312 ppm guanidine), pH 9.6, 3. inoculation, 14 d): 0/0
Bacterial growth after inoculation (Paint 1, +0.25% guanidine carbonate (1640 ppm guanidine), pH 9.7, 1. inoculation, 7 d): 0/0
Bacterial growth after inoculation (Paint 1, +0.25% guanidine carbonate (1640 ppm guanidine), pH 9.7, 1. inoculation, 14 d): 0/0
Bacterial growth after inoculation (Paint 1, +0.25% guanidine carbonate (1640 ppm guanidine), pH 9.7, 2. inoculation, 7 d): 0/0
Bacterial growth after inoculation (Paint 1, +0.25% guanidine carbonate (1640 ppm guanidine), pH 9.7, 2. inoculation, 14 d): 0/0
Bacterial growth after inoculation (Paint 1, +0.25% guanidine carbonate (1640 ppm guanidine), pH 9.7, 3. inoculation, 7 d): 0/0
Bacterial growth after inoculation (Paint 1, +0.25% guanidine carbonate (1640 ppm guanidine), pH 9.7, 3. inoculation, 14 d): 0/0
Bacterial growth after inoculation (Paint 1, +0.3% guanidine carbonate (1968 ppm guanidine), pH 9.7, 1. inoculation, 7 d): 0/0
Bacterial growth after inoculation (Paint 1, +0.3% guanidine carbonate (1968 ppm guanidine), pH 9.7, 1. inoculation, 14 d): 0/0
Bacterial growth after inoculation (Paint 1, +0.3% guanidine carbonate (1968 ppm guanidine), pH 9.7, 2. inoculation, 7 d): 0/0
Bacterial growth after inoculation (Paint 1, +0.3% guanidine carbonate (1968 ppm guanidine), pH 9.7, 2. inoculation, 14 d): 0/0
Bacterial growth after inoculation (Paint 1, +0.3% guanidine carbonate (1968 ppm guanidine), pH 9.7, 3. inoculation, 7 d): 0/0
Bacterial growth after inoculation (Paint 1, +0.3% guanidine carbonate (1968 ppm guanidine), pH 9.7, 3. inoculation, 14 d): 0/0
Bacterial growth after inoculation (Paint 1, +0.4% guanidine carbonate (2624 ppm guanidine), pH 9.9, 1. inoculation, 7 d): 0/0
Bacterial growth after inoculation (Paint 1, +0.4% guanidine carbonate (2624 ppm guanidine), pH 9.9, 1. inoculation, 14 d): 0/0
Bacterial growth after inoculation (Paint 1, +0.4% guanidine carbonate (2624 ppm guanidine), pH 9.9, 2. inoculation, 7 d): 0/0
Bacterial growth after inoculation (Paint 1, +0.4% guanidine carbonate (2624 ppm guanidine), pH 9.9, 2. inoculation, 14 d): 0/0
Bacterial growth after inoculation (Paint 1, +0.4% guanidine carbonate (2624 ppm guanidine), pH 9.9, 3. inoculation, 7 d): 0/0
Bacterial growth after inoculation (Paint 1, +0.4% guanidine carbonate (2624 ppm guanidine), pH 9.9, 3. inoculation, 14 d): 0/0
Bacterial growth after inoculation (Paint 1, +0.5% guanidine carbonate (3280 ppm guanidine), pH 10.1, 1. inoculation, 7 d): 0/0
Bacterial growth after inoculation (Paint 1, +0.5% guanidine carbonate (3280 ppm guanidine), pH 10.1, 1. inoculation, 14 d): 0/0
Bacterial growth after inoculation (Paint 1, +0.5% guanidine carbonate (3280 ppm guanidine), pH 10.1, 2. inoculation, 7 d): 0/0
Bacterial growth after inoculation (Paint 1, +0.5% guanidine carbonate (3280 ppm guanidine), pH 10.1, 2. inoculation, 14 d): 0/0
Bacterial growth after inoculation (Paint 1, +0.5% guanidine carbonate (3280 ppm guanidine), pH 10.1, 3. inoculation, 7 d): 0/0
Bacterial growth after inoculation (Paint 1, +0.5% guanidine carbonate (3280 ppm guanidine), pH 10.1, 3. inoculation, 14 d): 0/0
Bacterial growth after inoculation (Paint 1, +1.0% guanidine carbonate (6560 ppm guanidine), pH 10.4, 1. inoculation, 7 d): 0/0
Bacterial growth after inoculation (Paint 1, +1.0% guanidine carbonate (6560 ppm guanidine), pH 10.4, 1. inoculation, 14 d): 0/0
Bacterial growth after inoculation (Paint 1, +1.0% guanidine carbonate (6560 ppm guanidine), pH 10.4, 2. inoculation, 7 d): 0/0
Bacterial growth after inoculation (Paint 1, +1.0% guanidine carbonate (6560 ppm guanidine), pH 10.4, 2. inoculation, 14 d): 0/0
Bacterial growth after inoculation (Paint 1, +1.0% guanidine carbonate (6560 ppm guanidine), pH 10.4, 3. inoculation, 7 d): 0/0
Bacterial growth after inoculation (Paint 1, +1.0% guanidine carbonate (6560 ppm guanidine), pH 10.4, 3. inoculation, 14 d): 0/0
Bacterial growth after inoculation (Paint 2, +0.1% guanidine carbonate (656 ppm guanidine), pH 8.9, 1. inoculation, 7 d): 2 (Light growth, maximum 100 colonies)
Bacterial growth after inoculation (Paint 2, +0.1% guanidine carbonate (656 ppm guanidine), pH 8.9, 1. inoculation, 14 d): 0
Bacterial growth after inoculation (Paint 2, +0.1% guanidine carbonate (656 ppm guanidine), pH 8.9, 2. inoculation, 7 d): 6
